Measured values: patent publication US11554171B2, “Compounds and methods for the targeted degradation of bromodomain-containing proteins” (Arvinas Operations, Inc., priority 2015, dated 2023)

Columns and labels:
22RV-1 tumor xenograft = experiment: In vivo 22Rv1 xenografts efficacy; parameters: species or system mice; details: 14 day; subcutaneous dosing (FIG. 7)
Procedure: (§1) Mice were housed in pathogen-free animal facilities at New England Life Sciences (NELS, New Haven, Conn.). All experiments were conducted under an IACUC protocol that was approved by the NELS IACUC committee. Male Nu/Nu mice and CB17 SCID mice were obtained at 4-5 weeks age from Charles River Laboratories and implanted subcutaneously with 5×10^6 22Rv1 cells or 5×10^6 VCaP cells in Matrigel (Corning Life Sciences). After 10-14 days, mice bearing >200 mm^3 tumors were randomized into indicated number of groups with ten mice in each group while ensuring identical (±5 mm^3) mean tumor volume in each group. Dosing was carried out through the indicated route and with the indicated schedule for each drug for up to three weeks, depending on the experiment. Mice were sacrificed eight hours after the final dose. Blood was collected, processed to plasma, and flash frozen for PK analysis. Tissues were harvested and flash frozen for further analysis. All PK analysis was carried out at Drumetix Laboratories (Greensboro, N.C.). 2 out of 10 animals in each study arm were randomly excluded in pharmacodynamic analysis, for greater technical ease of running a 20-well protein gel. For PSA ELISA, only samples with at least 25 uL plasma remaining after PK analysis were utilized using the Cell Signaling PathScan® Total PSA/KLK3 Sandwich ELISA Kit #14119 following the manufacturer's protocol. […]

c-myc in 22RV-1 cells = experiment: Human c-myc ELISA assay; type: cell-based
In short: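 c-myc levels measured by ELISA in RIPA lysates of 22RV-1 cells, calibrated with a 333-0 pg/ml standard curve. Lysates came from cells exposed for 18 h to an 8-point, 1:3 dose series starting at 300 nM or 1 μM final in 0.1% DMSO. Suppression potency given as DC50.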

BRD2 = target: T1, BRD2 (Homo sapiens, UniProt P25440); experiment: Immunoblotting, BRD2 degradation; type: cell-based; details: 22RV-1, VCaP, and LnCaP95 cells (FIG. 1)
T1 construct: endogenous in cells; host or cells: 22Rv1, VCaP, LnCaP95
T1 sequence (P25440 whole entry): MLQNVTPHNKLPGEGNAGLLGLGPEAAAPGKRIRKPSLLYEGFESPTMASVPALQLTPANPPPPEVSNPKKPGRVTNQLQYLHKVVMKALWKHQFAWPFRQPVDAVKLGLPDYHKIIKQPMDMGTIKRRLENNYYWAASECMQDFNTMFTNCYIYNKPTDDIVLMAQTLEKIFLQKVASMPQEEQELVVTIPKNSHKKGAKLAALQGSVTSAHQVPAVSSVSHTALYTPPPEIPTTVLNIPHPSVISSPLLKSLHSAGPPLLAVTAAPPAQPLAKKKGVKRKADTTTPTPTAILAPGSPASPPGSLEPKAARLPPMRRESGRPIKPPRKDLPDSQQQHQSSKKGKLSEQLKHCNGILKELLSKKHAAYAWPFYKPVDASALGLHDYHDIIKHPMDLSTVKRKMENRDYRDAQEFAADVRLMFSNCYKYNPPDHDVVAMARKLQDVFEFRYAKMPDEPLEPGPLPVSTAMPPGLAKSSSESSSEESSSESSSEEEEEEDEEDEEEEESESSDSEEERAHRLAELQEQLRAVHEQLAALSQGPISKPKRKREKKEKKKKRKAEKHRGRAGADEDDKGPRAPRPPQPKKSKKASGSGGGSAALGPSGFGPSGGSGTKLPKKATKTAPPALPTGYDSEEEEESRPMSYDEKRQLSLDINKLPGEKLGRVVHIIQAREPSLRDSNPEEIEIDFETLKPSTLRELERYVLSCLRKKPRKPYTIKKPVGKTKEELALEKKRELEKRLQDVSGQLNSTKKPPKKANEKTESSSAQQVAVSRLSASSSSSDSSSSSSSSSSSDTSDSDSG
Source text: (§2) 22Rv1 and VCaP cell lines were purchased from ATCC. LnCap95 cells were a generous gift from Dr. Alan Meeker at The Johns Hopkins University School of Medicine. BRD2 (#5848), BRD4 (#13440), PARP (#9532), c-Myc (#5605) antibodies were purchased from cell signaling. BRD3 (sc-81202) antibody was purchased from Santa Cruz Biotech. Antibodies used for immunohistochemistry were c-MYC (abcam #ab32072) and BRD4 (Bethyl Laboratories #a301-985a50). Actin and Tubulin antibodies were purchased from Sigma.
(§3) Cells were lysed in RIPA buffer (Thermo Fisher Cat #89900) supplemented with protease inhibitors (Pierce™ Protease Inhibitor Tablets, EDTA-free Cat #88266). Lysates were centrifuged at 16,000×g and supernatants were used for SDS-PAGE. Western blotting was carried out following standard protocols.

22RV-1 cells [1] = experiment: Cell proliferation assay (CellTiter-Glo); type: cell-based; details: FIG. 4
Procedure: 22RV-1 cells are seeded at 5,000 cells/well at a volume of 75 μL/well in RPMI+10% FBS media in 96-well plates and grown overnight at 37 C. Cells are dosed with compounds at 4× concentration diluted in 0.4% DMSO; compounds are serially diluted 1:3 for 10-point dose curve. 25 ul of compounds is added to cells for a final concentration starting at 300 nM-0.3 nM in 0.1% DMSO and incubated for 72 hrs. In a separate plate, 100 ul of 5,000 cells/well are plated in 8 wells, 100 ul of CellTiter-Glo (CellTiter-Glo® Luminescent Cell Viability Assay, Promega #G7573) is added and incubated for 30 minutes, then read on luminometer to assess initial signal for cell growth. After 72 hrs, 100 ul of CellTiter-Glo is added and incubated for 30 minutes, then read on luminometer. Data is analyzed and plotted using GraphPad Prism software.

BRD3 = target: T2, BRD3 (Homo sapiens, UniProt Q15059); experiment: Immunoblotting, BRD3 degradation; type: cell-based; details: 22RV-1, VCaP, and LnCaP95 cells (FIG. 1)
T2 construct: endogenous in cells; host or cells: 22Rv1, VCaP, LnCaP95
T2 sequence (Q15059 whole entry): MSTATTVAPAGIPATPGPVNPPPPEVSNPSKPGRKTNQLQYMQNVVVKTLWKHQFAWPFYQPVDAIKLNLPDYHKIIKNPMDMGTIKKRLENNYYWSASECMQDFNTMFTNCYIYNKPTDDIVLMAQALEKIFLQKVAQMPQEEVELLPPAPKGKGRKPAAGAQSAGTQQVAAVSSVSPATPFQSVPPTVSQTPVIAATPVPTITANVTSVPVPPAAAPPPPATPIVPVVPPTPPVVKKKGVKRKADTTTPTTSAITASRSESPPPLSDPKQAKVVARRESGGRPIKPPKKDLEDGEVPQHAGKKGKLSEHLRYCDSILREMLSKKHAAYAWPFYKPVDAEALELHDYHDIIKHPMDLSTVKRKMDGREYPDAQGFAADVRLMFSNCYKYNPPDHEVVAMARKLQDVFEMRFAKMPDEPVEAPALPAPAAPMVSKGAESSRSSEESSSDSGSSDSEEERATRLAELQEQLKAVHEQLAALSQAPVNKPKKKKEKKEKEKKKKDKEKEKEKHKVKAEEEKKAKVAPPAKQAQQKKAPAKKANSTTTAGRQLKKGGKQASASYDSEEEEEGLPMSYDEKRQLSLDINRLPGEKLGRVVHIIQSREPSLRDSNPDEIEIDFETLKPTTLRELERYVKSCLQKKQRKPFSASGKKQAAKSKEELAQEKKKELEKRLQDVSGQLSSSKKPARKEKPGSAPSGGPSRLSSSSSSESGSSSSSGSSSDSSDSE
Source text: as §2, §3

BRD4 [2] = target: T3, BRD4 (Homo sapiens, UniProt O60885); experiment: Immunoblotting, BRD4 degradation; type: cell-based; parameters: compounds which function to recruit endogenous proteins, e.g., BRd4, to E3 Ubiquitin Ligase for ubiquitination and degradation; endogenous in cells; host or cells: 22Rv1, VCaP, LnCaP95
Source text: as §2, §3

BRD4 [3] = target: T3, BRD4; experiment: BRD4 degradation in 22RV-1 tumor xenograft study; type: in vivo; parameters: from tissue; host or cells: 22Rv1 tumour xenograft harvested from mice; details: 14-day 22RV-1 tumor xenograft study; dosed subcutaneously to mice at 10 mg/kg (qd) for 2 weeks (FIG. 6)
Procedure: As a comparison, OTX-015 was also included (50 mg/kg, p.o., qd). Example 77 was dosed subcutaneously to mice at 10 mg/kg (qd) for 2 weeks.
as §1, with “gel.” for “gel. For PSA ELISA, only samples with at least 25 uL plasma remaining after PK analysis were utilized using the Cell Signaling PathScan® Total PSA/KLK3 Sandwich ELISA Kit #14119 following the manufacturer's protocol.”

22RV-1 cells [4] = experiment: Apoptosis assay (Caspase-Glo 3/7); type: cell-based; details: FIG. 5
Procedure: 22RV-1 cells are seeded at 5,000 cells/well at a volume of 75 μL/well in RPMI+10% FBS media in 96-well plates and grown overnight at 37 C. Cells are dosed with compounds at 4× concentration diluted in 0.4% DMSO; compounds are serially diluted 1:3 for 8-point dose curve. 25 ul of compounds is added to cells for a final concentration starting at 300 nM-0.3 nM in 0.1% DMSO and incubated for 48 hrs. After 48 hrs, 100 ul of Caspase-Glo® 3/7 (Promega Caspase-Glo 3/7 Assay #G8093 is added and incubated for 30 minutes, then read on luminometer. Data is analyzed and plotted using GraphPad Prism software.

- DC50 (c-myc in 22RV-1 cells; Homo sapiens, 22Rv1, read-out: Degradation of BRD4: DC50 (uM) c-Myc ELISA in 22RV1 cells): < 0.01 µM
- degradation of BRD2 (BRD2): degradation
- degradation of BRD3 (BRD3): degradation
- degradation of BRD4 (BRD4 [2]; 22RV-1, VCaP, and LnCaP95 cells (FIG. 1)): degradation
- BRD4 degradation after pretreatment with an excess of VHL ligand ARV-056 (BRD4 [2]; FIG. 2): blocked
- BRD4 degradation in presence of proteasome inhibitor carfilzomib (BRD4 [2]; FIG. 2): blocked
- degradation of BRD4 in tumor xenograft (BRD4 [3]): degradation of BRD4
Structure (SMILES): Cc1ncsc1-c1ccc([C@H](C)NC(=O)[C@@H]2C[C@@H](O)CN2C(=O)[C@@H](NC(=O)COCCCOCCNC(=O)C[C@@H]2N=C(c3ccc(Cl)cc3)c3c(sc(C)c3C)-n3c(C)nnc32)C(C)(C)C)cc1 [Example 77, (2S, 4R)-1-[(2S)-2-{2-[3-(2-{2-[(9S)-7-(4-chlorophenyl)-4,5,13-trimethyl-3-thia-1,8,11,12-tetraazatricyclo[8.3.0.0^2,^6]trideca-2(6),4,7,10,12-pentaen-9-yl]acetamido}ethoxy)propoxy]acetamido}-3,3-dimethylbutanoyl]-4-hydroxy-N-[(1S)-1-[4-(4-methyl-1,3-thiazol-5-yl)phenyl]ethyl]pyrrolidine-2-carboxamide]
- tumor response in 22RV-1 mice tumor xenograft model (22RV-1 tumor xenograft): tumor regression
- suppression of cellular c-MYC levels measured by ELISA (c-myc in 22RV-1 cells; FIG. 3): suppression
- Emax (c-myc in 22RV-1 cells; Homo sapiens, 22Rv1, 18 h, read-out: Degradation of BRD4: Maximum inhibition (%) c-Myc ELISA in 22RV1 cells): 100%
- proliferation inhibition of prostate cancer cell growth (22RV-1 cells [1]): proliferation inhibition
- caspase activation in prostate cancer cell lines (22RV-1 cells [4]): caspase activation
